# Laboratory results taken from patent publication US4241069A, “3-Methylene flavanones and 3-methylene chromanones” (Miles Laboratories, Inc., priority 1979, dated 1980).
# Tests used:
# A. fumigatus NRRL 165 = assay: MIC, agar incorporation method; type: cell-based; conditions: Aspergillus fumigatus, NRRL165, 32° C., 48-72 hours, read-out: Minimal Inhibitory Concentration
# Procedure: (§1) The compounds of the present invention were tested for their ability to inhibit the growth of microorganisms by in vitro tests. Generally the in vitro tests involve growing representative microorganisms under conditions favorable to such growth and measuring the effectiveness of one or more compounds in inhibiting or destroying the growth of the microorganisms. The microorganisms used include representative bacteria, fungi and yeasts.
# (§2) A representative selection of the test microorganisms were cultured in a nutrient broth, such as, for example, Eugon, commercially available from Difco Laboratories, Detroit, Michigan. Bacteria and Candida species were cultured for 24 hours at 32°-37° C. and fungi were cultured for approximately one week at 32° C. Inocula were prepared by suspending the growth or spores from a slant culture in sufficient sterile normal (0.9 percent) saline or Eugon broth, to yield cell or spore concentrations of 1,000,000 cells per milliliter. Anaerobic bacteria were cultured for 48-72 hours at 32°-37° C. in a thioglycollate containing medium, for example, Fluid Thioglycollate medium or NIH thioglycollate broth, commercially available from Difco Laboratories.
# (§3) The compounds of the present invention were tested for activity against bacteria, yeasts and fungi by the agar incorporation method described below. MA 1347, 3-(dimethylaminomethyl)flavanone (disclosed in U.S. Pat. No. 3,753,985) was used as a comparative standard along with controls for each solvent system used.
# (§4) A series of agar plates containing two-fold dilutions of each compound to be tested, ranging in concentration from 100 to 3.1 mcg/ml of agar medium was prepared. Aliquots of each concentration (100, 50, 25, 12.5, 6.2, and 3.1) prepared in N,N-dimethylformamide or 50 percent aqueous DMF were added to liquid Eugon agar at 48° C. (one part test solution to 100 parts agar). In some cases, tests with further dilutions to 0.125 mcg/ml were conducted. The agar medium, containing the 3-methylene flavanone or chromanone compound to be tested, was then dispensed into petri dishes and allowed to solidify. The solidified plates were kept overnight at room temperatures to dry the surface of the agar.
# (§5) The agar plates were then inoculated with a drop of the standardized cell or spore suspension. Inoculated plates were incubated at 32° C. The inhibition end-point or minimum inhibitory concentration (MIC) shown in Table D represent the lowest concentration of test compound which inhibited the growth of the microorganism. Visual determination of growth inhibition was used. Bacteria and yeast end-points were determined after 24 hours incubation; molds, dermatophytes and anaerobes after 48-72 hours incubation. MIC values shown as ranges represent the extremes found in repeat assays. Virtually all such values were written plus or minus one dilution, the accepted variation of a two-fold dilution assay.
# [1] = tested on: Aspergillus niger ATCC 16404; assay: MIC, agar incorporation method; type: cell-based; conditions: ATCC16404, 32° C., 48-72 hours, read-out: Minimal Inhibitory Concentration
# Procedure: as §1, §2, §3, §4, §5
# C. albicans NRRL Y-477 = assay: MIC, agar incorporation method; type: cell-based; conditions: Candida albicans, NRRLY477, 32° C., 24 hours, read-out: Minimal Inhibitory Concentration
# Procedure: as §1, §2, §3, §4, §5
# C. guillermondii VM 42 = assay: MIC, agar incorporation method; type: cell-based; conditions: 32° C., 24 hours; read-out: Minimal Inhibitory Concentration
# Procedure: as §1, §2, §3, §4, §5
# C. krusei VM 29B = assay: MIC, agar incorporation method; type: cell-based; conditions: Pichia kudriavzevii, VM29B; 32° C., 24 hours; read-out: Minimal Inhibitory Concentration
# Procedure: as §1, §2, §3, §4, §5
# C. tropicalis NRRL Y1410 = assay: MIC, agar incorporation method; type: cell-based; conditions: Candida tropicalis, NRRLY1410; 32° C., 24 hours; read-out: Minimal Inhibitory Concentration
# Procedure: as §1, §2, §3, §4, §5
# [2] = tested on: Candida albicans ATCC 10231; assay: MIC, agar incorporation method; type: cell-based; conditions: ATCC10231, C. albicans ATCC 10231, 32° C., 24 hours, read-out: Minimal Inhibitory Concentration
# Procedure: as §1, §2, §3, §4, §5
# [3] = tested on: Escherichia coli ATCC 8739; assay: MIC, agar incorporation method; type: cell-based; conditions: ATCC8739, 32° C., 24 hours, read-out: Minimal Inhibitory Concentration
# Procedure: as §1, §2, §3, §4, §5
# [4] = tested on: Microsporum gypseum ATCC 14683; assay: MIC, agar incorporation method; type: cell-based; conditions: Nannizzia gypsea, ATCC14683, 32° C., 48-72 hours; read-out: Minimal Inhibitory Concentration
# Procedure: as §1, §2, §3, §4, §5
# [5] = tested on: Pseudomonas aeruginosa ATCC 14502; assay: MIC, agar incorporation method; type: cell-based; conditions: ATCC14502, 32° C., 24 hours, read-out: Minimal Inhibitory Concentration
# Procedure: as §1, §2, §3, §4, §5
# [6] = tested on: Staphylococcus aureus ATCC 6538; assay: MIC, agar incorporation method; type: cell-based; conditions: Staphylococcus aureus, ATCC6538; S. aureus ATCC 6538; 32° C., 24 hours; read-out: Minimal Inhibitory Concentration
# Procedure: as §1, §2, §3, §4, §5
# [7] = tested on: Streptococcus faecalis ATCC 10541; assay: MIC, agar incorporation method; type: cell-based; conditions: Enterococcus faecalis, ATCC10541; 32° C., 24 hours; read-out: Minimal Inhibitory Concentration
# Procedure: as §1, §2, §3, §4, §5
# T. mentagrophytes CDC = assay: MIC, agar incorporation method; type: cell-based; conditions: Trichophyton mentagrophytes, 32° C., 48-72 hours, read-out: Minimal Inhibitory Concentration
# Procedure: as §1, §2, §3, §4, §5
# T. mentagrophytes TM-2 = assay: MIC, agar incorporation method; type: cell-based; conditions: Trichophyton mentagrophytes, TM2, 32° C., 48-72 hours, read-out: Minimal Inhibitory Concentration
# Procedure: as §1, §2, §3, §4, §5
# T. rubrum ATCC 10218 = assay: MIC, agar incorporation method; type: cell-based; conditions: Trichophyton rubrum, ATCC10218; 32° C., 48-72 hours; read-out: Minimal Inhibitory Concentration
# Procedure: as §1, §2, §3, §4, §5
# [8] = tested on: Trichophyton mentagrophytes ATCC 4807; assay: MIC, agar incorporation method; type: cell-based; conditions: ATCC4807, 32° C., 48-72 hours, read-out: Minimal Inhibitory Concentration
# Procedure: as §1, §2, §3, §4, §5
# S. aureus NRRL B2747 = assay: MIC, agar incorporation method; type: cell-based, Staphylococcus aureus; conditions: Staphylococcus aureus, NRRLB2747, 32° C., 24 hours, read-out: Minimal Inhibitory Concentration
# Procedure: as §1, §2, §3, §4, §5
# A. fumigatus NRRL 163 = assay: MIC, agar incorporation method; type: cell-based; conditions: Aspergillus fumigatus, NRRL163, NRRL 163; 32° C., 48-72 hours; read-out: Minimal Inhibitory Concentration
# Procedure: as §1, §2, §3, §4, §5
# [9] = tested on: Propionobacterium acnes ATCC 6919; assay: MIC, agar incorporation method, anaerobic; type: cell-based; conditions: 48 hours at 35° C., GasPak Anaerobic Jar, read-out: Minimal Inhibitory Concentration
# Procedure: as §1, §2, §3, §4, §5
# *Anaerobic: 48 hours incubation at 35° C. GasPak Anaerobic Jar
compound,measurement,setting,value
"C=C1C(=O)c2ccccc2OC1c1cccc(Cl)c1 (stereo not drawn) [Ex. 2, 3'-chloro-3-methylene flavanone]",MIC,A. fumigatus NRRL 165,100 mg/L
same,MIC,[1],100 mg/L
same,MIC,C. albicans NRRL Y-477,25 mg/L
same,MIC,C. guillermondii VM 42,50 mg/L
same,MIC,C. krusei VM 29B,25 mg/L
same,MIC,C. tropicalis NRRL Y1410,50 mg/L
same,MIC,[2],25 mg/L
same,MIC,[3],> 100 mg/L
same,MIC,[4],6.2 mg/L
same,MIC,[5],> 100 mg/L
same,MIC,[6],≤ 3.1 mg/L
same,MIC,[7],25 mg/L
same,MIC,T. mentagrophytes CDC,12.5 mg/L
same,MIC,T. mentagrophytes TM-2,6.2 mg/L
same,MIC,T. rubrum ATCC 10218,≤ 3.1 mg/L
same,MIC,[8],6.2 mg/L
same,MIC,S. aureus NRRL B2747,6.2 mg/L
"C=C1C(=O)c2ccccc2OC1c1ccc(Br)cc1 (stereo not drawn) [Ex. 6, 4'-bromo-3-methylene flavanone]",MIC,A. fumigatus NRRL 165,50 mg/L
same,MIC,[1],50 mg/L
same,MIC,C. albicans NRRL Y-477,25 mg/L
same,MIC,C. guillermondii VM 42,25 mg/L
same,MIC,C. krusei VM 29B,25 mg/L
same,MIC,C. tropicalis NRRL Y1410,25 mg/L
same,MIC,[2],25 mg/L
same,MIC,[3],> 100 mg/L
same,MIC,[4],6.2 mg/L
same,MIC,[5],> 100 mg/L
same,MIC,[6],≤ 3.1 mg/L
same,MIC,[7],25 mg/L
same,MIC,T. mentagrophytes CDC,12.5 mg/L
same,MIC,T. mentagrophytes TM-2,6.2 mg/L
same,MIC,T. rubrum ATCC 10218,6.2 mg/L
same,MIC,[8],6.2 mg/L
same,MIC,S. aureus NRRL B2747,6.2 mg/L
"C=C1C(=O)c2ccccc2OC1c1cccc(OC)c1 (stereo not drawn) [Ex. 7, 3'-methoxy-3-methylene flavanone]",MIC,A. fumigatus NRRL 165,> 100 mg/L
same,MIC,[1],> 100 mg/L
same,MIC,C. albicans NRRL Y-477,100 mg/L
same,MIC,C. guillermondii VM 42,> 100 mg/L
same,MIC,C. krusei VM 29B,100 mg/L
same,MIC,C. tropicalis NRRL Y1410,> 100 mg/L
same,MIC,[2],> 100 mg/L
same,MIC,[3],> 100 mg/L
same,MIC,[4],25 mg/L
same,MIC,[5],> 100 mg/L
same,MIC,[6],25 mg/L
same,MIC,[7],100 mg/L
same,MIC,T. mentagrophytes CDC,25 mg/L
same,MIC,T. mentagrophytes TM-2,25 mg/L
same,MIC,T. rubrum ATCC 10218,12.5 mg/L
same,MIC,[8],25 mg/L
same,MIC,S. aureus NRRL B2747,25 mg/L
"C=C1C(=O)c2ccccc2OC1c1ccc(OC)cc1 (stereo not drawn) [Ex. 8, 4'-methoxy-3-methylene flavanone]",MIC,A. fumigatus NRRL 163,50 mg/L
same,MIC,[1],100 mg/L
same,MIC,C. albicans NRRL Y-477,100 mg/L
same,MIC,C. guillermondii VM 42,100 mg/L
same,MIC,C. krusei VM 29B,50 mg/L
same,MIC,C. tropicalis NRRL Y1410,> 100 mg/L
same,MIC,[2],100 mg/L
same,MIC,[3],> 100 mg/L
same,MIC,[4],12.5 mg/L
same,MIC,[5],> 100 mg/L
same,MIC,[6],12.5 mg/L
same,MIC,[7],> 100 mg/L
same,MIC,T. mentagrophytes CDC,12.5 mg/L
same,MIC,T. mentagrophytes TM-2,12.5 mg/L
same,MIC,T. rubrum ATCC 10218,25 mg/L
same,MIC,[8],12.5 mg/L
same,MIC,S. aureus NRRL B2747,12.5 mg/L
same,MIC,[9],> 100 mg/L
"C=C1C(=O)c2ccccc2OC1c1ccc(C(C)(C)C)cc1 (stereo not drawn) [Ex. 14, 4'-t-butyl-3-methylene flavanone]",MIC,[1],100 mg/L
same,MIC,C. guillermondii VM 42,> 100 mg/L
same,MIC,C. krusei VM 29B,50 mg/L
same,MIC,C. tropicalis NRRL Y1410,> 100 mg/L
same,MIC,[3],> 100 mg/L
same,MIC,[4],12.5 to 25 mg/L
same,MIC,[5],> 100 mg/L
same,MIC,[6],≤ 3.1 mg/L
same,MIC,[7],25 to 50 mg/L
same,MIC,T. mentagrophytes CDC,25 mg/L
same,MIC,T. mentagrophytes TM-2,25 mg/L
same,MIC,T. rubrum ATCC 10218,12.5 to 25 mg/L
same,MIC,[8],25 mg/L
same,MIC,S. aureus NRRL B2747,3.1 to 6.2 mg/L
same,MIC,[9],≤ 100 mg/L
"C=C1C(=O)c2ccc(OC)cc2OC1c1ccc(Cl)cc1 (stereo not drawn) [Ex. 18, 4'-chloro-7-methoxy-3-methylene flavanone]",MIC,A. fumigatus NRRL 163,12.5 mg/L
same,MIC,[1],25 mg/L
same,MIC,C. albicans NRRL Y-477,50 mg/L
same,MIC,C. guillermondii VM 42,> 100 mg/L
same,MIC,C. krusei VM 29B,25 mg/L
same,MIC,C. tropicalis NRRL Y1410,> 100 mg/L
same,MIC,[2],50 mg/L
same,MIC,[3],> 100 mg/L
same,MIC,[4],6.2 mg/L
same,MIC,[5],> 100 mg/L
same,MIC,[6],≤ 3.1 mg/L
same,MIC,[7],50 mg/L
same,MIC,T. mentagrophytes CDC,12.5 mg/L
same,MIC,T. mentagrophytes TM-2,12.5 mg/L
same,MIC,T. rubrum ATCC 10218,12.5 mg/L
same,MIC,[8],12.5 mg/L
same,MIC,S. aureus NRRL B2747,6.2 mg/L
same,MIC,[9],≤ 100 mg/L
"C=C1C(=O)c2cc(C)ccc2OC1c1ccccc1 (stereo not drawn) [compound 19, 6-methyl-3-methylene flavanone]",MIC,A. fumigatus NRRL 163,25 mg/L
same,MIC,[1],25 mg/L
same,MIC,C. albicans NRRL Y-477,25 mg/L
same,MIC,C. guillermondii VM 42,25 mg/L
same,MIC,C. krusei VM 29B,25 mg/L
same,MIC,C. tropicalis NRRL Y1410,25 mg/L
same,MIC,[2],25 mg/L
same,MIC,[3],> 100 mg/L
same,MIC,[4],6.2 mg/L
same,MIC,[5],> 100 mg/L
same,MIC,[6],6.2 mg/L
same,MIC,[7],50 mg/L
same,MIC,T. mentagrophytes CDC,6.2 mg/L
same,MIC,T. mentagrophytes TM-2,6.2 mg/L
same,MIC,T. rubrum ATCC 10218,6.2 mg/L
same,MIC,[8],6.2 mg/L
same,MIC,S. aureus NRRL B2747,6.2 mg/L
same,MIC,[9],≤ 100 mg/L
